Where two headings read alike, the source gives them in different places.
Legend:
Assay type in all cases: physicochemical
[1] = Dynamic Vapor Sorption (DVS)
Description: Dynamic Vapor Sorption (DVS) was done using a DVS Intrinsic 1. The sample is loaded into a sample pan and suspended from a microbalance. A typical sample mass for DVS measurement is 25 mg. Nitrogen gas bubbled through distilled water provides the desired relative humidity.
A typical measurement comprises the steps: • 1—Equilibrate at 50% RH • 2-50% to 2%. (50%, 40%, 30%, 20%, 10% and 2%) • a. Hold minimum of 5 mins and maximum of 240 minutes at each humidity. The pass criteria is less than 0.002% change • 3-2% to 95% (2%, 10%, 20%, 30%, 40%, 50%, 60%, 70%, 80%, 90%, 95%) • a. Hold minimum of 5 mins and maximum of 240 minutes at each humidity. The pass criteria is less than 0.002% change • 4-95% to 2% (95%, 80%, 70%, 60%, 50%, 40%, 30%, 20%, 10%, 2%) • a. Hold minimum of 5 mins and maximum of 240 minutes at each humidity. The pass criteria is less than 0.002% change • 5-2% to 50% (2%, 10%, 20%, 30%, 40%, 50%) • a. Hold minimum of 5 mins and maximum of 240 minutes at each humidity. The pass criteria is less than 0.002% change Dynamic Vapor Sorption Isotherm Plots of Solid Forms of Compound A⋅2MSA

[2] = Storage at ambient conditions (XRPD); details: 21-22° C., 10-40% RH, a week
Description: Characterization after storage under ambient conditions: Pattern B was left at ambient conditions (21-22° C., 10-40% RH) for a week then characterized by)(RFD, TGA/DSC, and water content measured by Karl-Fischer titration. […] The water content was confirmed by KF titration which yielded a value of 4.20 wt. %.
Compound A⋅2MSA (Pattern A, 0.2622 g) was added to a 20 mL vial with a stir bar. Fifteen volumes (3.93 mL) of EtOH was added and the slurry was stirred overnight (˜20 hours). The slurry was sampled to confirm the correct pattern was generated, then the solids were collected by filtration. The resultant yellow solid was dried in a vacuum oven at 50° C. under dynamic vacuum for 2 hours, then under static vacuum overnight (˜16 hours) to yield 0.2015 g (77% yield). The in-situ sample drawn was dried for 3 hours then the solid was used for characterization by solution ^1H-NMR spectroscopy and simultaneous TGA/DSC. The bulk was dried overnight and used for stand-alone DSC, and thermal treatment.
Compound A⋅2MSA (Pattern A) was slurried in EtOH overnight at room temperature (ca. 16 hours). […] The bulk was dried in a vacuum oven at 50° C. under dynamic vacuum for 4.5 hours. The dried solids were removed from the oven and a “dry” XRPD analysis was collected.
Compound A⋅2MSA (Pattern A, 0.2659 g) was added to a 20 mL vial with a stir bar. Twenty-five volumes (6.65 mL) of ACN was added and the slurry was stirred overnight (˜20 hours). The slurry was sampled to confirm the correct pattern was generated, then the solids were collected by filtration. The resultant yellow solid was dried in a vacuum oven at 50° C. under dynamic vacuum for 2 hours, then under static vacuum overnight (˜16 hours) to yield 0.2255 g (85% yield). The sample drawn was dried for 3 hours then the solid was used for characterization by solution ^1H-NMR spectroscopy and simultaneous TGA/DSC. The bulk was dried overnight and used for stand-alone DSC.

[3] = Kinetic solubility studies in FaSSIF and FeSSIF; details: 37° C.; for solubility thermodynamic at 1 day: thermodynamic from solid, read-out: Concentration
Description: The solubility of the dimesylate (Pattern B) and mono-HCl salts of Compound A was determined in FaSSIF (pH 6.5) at 37° C. after a slurry time of 5, 20 and 40 minutes. FaSSIF was warmed to 37° C. and added to a vial of ca. 9 mg of the salt to mark t=0. The mixture was kept stirring at 37° C. and a sample drawn with a syringe at t+5, 20 and 40 minutes. The samples were syringe filtered and the filtrate was diluted 2× to ensure no precipitation while waiting for HPLC analysis. The pH of the solution collected at 40 minutes was measured. The slurry was sampled again the following day and the supernatant from syringe filtration was analyzed directly by HPLC without dilution. The same experiment was run with FeSSIF (pH 5.0).

[4] = Karl-Fischer titration for water determination; details: dimesylate
Description: Karl-Fischer titration for water determination was done using a Mettler Toledo C20S Coulometric KF Titrator equipped with a current generator cell with a diaphragm, and a doubleplatinum-pin electrode. Aquastar™ CombiCoulomat fritless reagent was used in both the anode and cathode compartments. Samples of approximately 0.03-0.10 g were dissolved in the anode compartment and titrated until the solution potential dropped below 100 mV. Hydranal 1 wt. % water standard is used for validation prior to sample analysis.

[5] = Equilibrium solubility in simulated fluids and water at 37° C.; details: for pH (24 hr): dimesylate; for solubility at 24 h: above calibration range
Description: The solubility Compound A⋅2MSA, Patterns A, B and I, was measured in water, fasted state simulated gastric fluid (FaSSGF) and fasted state simulated intestinal fluid (FaSSIF) at 37° C. by slurrying in the respective media for 24 hours. 1.5 mL of the fluid was stirred at 37° C. About 5 mg of the specified solid was added to FaSSIF and a thin slurry was immediately formed. As a test, approximately 80 and 60 mg of Pattern A was added to 1.5 mL of water and FaSSGF, respectively without formation of a slurry. Therefore, about 10 mg of the desired Pattern was added to water and FaSSGF solutions. The samples were allowed to stir at 37° C. for 24 hrs. The stir bars were removed from the FaSSIF vials and the solids allowed to settle for 0.5 hours at 37° C. The supernatant/solutions were syringe filtered and recovered for analysis by HPLC as well as for pH measurement.

- XRPD form after the DVS experiment ([1]; 2-95% RH, dimesylate): no change in form
- reversible water uptake (DVS) ([1]; between 2% and 95% Relative Humidity (RH), dimesylate): 3.2 % w/w
- total mass difference (DVS) ([1]; over the 2-95% RH range): 3.2 wt. %
- mass change (DVS) ([1]; range of 10-80% RH): 1.3 wt. %
- XRPD pattern after storage at ambient conditions [2]: identical to Pattern B
- pH of the solution collected at 40 minutes ([3]; FaSSIF (pH 6.5)): 6.22
- Concentration ([3]; FaSSIF (pH 6.5), 5 min): 13 µg/mL
- Concentration ([3]; FaSSIF (pH 6.5), 20 min): 15 µg/mL
- Concentration ([3]; FaSSIF (pH 6.5), 40 min): 13 µg/mL
- pH of the solution collected at 40 minutes ([3]; FeSSIF (pH 5.0)): 4.94
- Concentration ([3]; FeSSIF (pH 5.0), 5 min): 559 µg/mL
- Concentration ([3]; FeSSIF (pH 5.0), 20 min): 565 µg/mL
- Concentration ([3]; FeSSIF (pH 5.0), 40 min): 559 µg/mL
- solubility thermodynamic at 1 day ([3]; FaSSIF (pH 6.5)): 8 µg/mL
- solubility thermodynamic at 1 day ([3]; FeSSIF (pH 5.0)): 502 µg/mL
- Water Content [4]: 4.2% w/w
- comments ([5]; FaSSGF (pH 1.70), 24 hrs): dissolved
- pH (24 hr) ([5]; FaSSGF (pH 1.70)): 1.80
- solubility at 24 h ([5]; FaSSGF, 37 °C, pH 1.7, fassgf or other biorelevant, thermodynamic from solid, FaSSGF (pH 1.70), 24 hrs, mg of Compound A (free base), read-out: Concentration): > 6570 µg/mL
- comments ([5]; FaSSIF (pH 6.48), 24 hrs): disproportionated
- pH (24 hr) ([5]; FaSSIF (pH 6.48)): 6.02
- solubility thermodynamic at 24 h ([5]; FaSSIF, 37 °C, pH 6.48, fassif, thermodynamic from solid, FaSSIF (pH 6.48), 24 hrs, mg of Compound A (free base), read-out: Concentration): 11 µg/mL
- solubility at 24 h ([5]; water, 37 °C, water, thermodynamic from solid, water, 24 hrs, mg of Compound A (free base), read-out: Concentration): > 6250 µg/mL
- comments ([5]; water, 24 hrs): dissolved
- pH (24 hr) ([5]; water): 3.08
SMILES: CS(=O)(=O)O.CS(=O)(=O)O.N#Cc1cccc(-c2ccc3ncc(-c4cc(F)cc(F)c4)c(N4CCC(N)CC4)c3c2)c1O [Pattern B, 3-(4-(4-aminopiperidin-1-yl)-3-(3,5-difluorophenyl)quinolin-6-yl)-2-hydroxybenzonitrile dimesylate]

Reference: US12617767B2, “Crystalline forms of somatostatin modulators” (Crinetics Pharmaceuticals, Inc., priority 2019, dated 2026)
